Assay results taken from ChEMBL document CHEMBL4359904, “Structural tuning of acridones for developing anticancer agents targeting dihydrofolate reductase” (Bioorg Med Chem Lett, 2019).
Active and inactive are the calls of the source. The calls are words filed in the database; no cut-off is given here.

Columns and labels:
CCRF-CEM [1] = test: Growth inhibition of human CCRF-CEM cells incubated for 48 hrs by sulforhodamine B assay; assay type: functional
RPMI-8226 [2] = test: Growth inhibition of human RPMI8226 cells incubated for 48 hrs by sulforhodamine B assay; assay type: functional; conditions: RPMI-8226, 48 h
SR [3] = test: Growth inhibition of human SR cells incubated for 48 hrs by sulforhodamine B assay; assay type: functional
HOP-62 = test: Growth inhibition of human HOP62 cells incubated for 48 hrs by sulforhodamine B assay; assay type: functional; conditions: HOP-62, 48 h
NCI-H23 = test: Growth inhibition of human NCI-H23 cells incubated for 48 hrs by sulforhodamine B assay; assay type: functional; conditions: NCI-H23, 48 h
NCI-H460 = test: Growth inhibition of human NCI-H460 cells incubated for 48 hrs by sulforhodamine B assay; assay type: functional; conditions: NCI-H460, 48 h
HCC 2998 = test: Growth inhibition of human HCC2998 cells incubated for 48 hrs by sulforhodamine B assay; assay type: functional; conditions: HCC 2998, 48 h
HCT-116 = test: Growth inhibition of human HCT116 cells incubated for 48 hrs by sulforhodamine B assay; assay type: functional; conditions: HCT-116, 48 h
SNB-75 = test: Growth inhibition of human SNB75 cells incubated for 48 hrs by sulforhodamine B assay; assay type: functional; conditions: SNB-75, 48 h
M14 = test: Growth inhibition of human M14 cells incubated for 48 hrs by sulforhodamine B assay; assay type: functional; conditions: M14, 48 h
OVCAR-3 = test: Growth inhibition of human OVCAR3 cells incubated for 48 hrs by sulforhodamine B assay; assay type: functional; conditions: OVCAR-3, 48 h
OVCAR-5 = test: Growth inhibition of human OVCAR5 cells incubated for 48 hrs by sulforhodamine B assay; assay type: functional; conditions: OVCAR-5, 48 h
786-0 = test: Growth inhibition of human 786-0 cells incubated for 48 hrs by sulforhodamine B assay; assay type: functional; conditions: 786-0, 48 h
A498 = test: Growth inhibition of human A498 cells incubated for 48 hrs by sulforhodamine B assay; assay type: functional; conditions: A498, 48 h
RXF 393 = test: Growth inhibition of human RXF393 cells incubated for 48 hrs by sulforhodamine B assay; assay type: functional; conditions: RXF 393, 48 h
PC-3 = test: Growth inhibition of human PC3 cells incubated for 48 hrs by sulforhodamine B assay; assay type: functional; conditions: PC-3, 48 h
DU-145 = test: Growth inhibition of human DU145 cells incubated for 48 hrs by sulforhodamine B assay; assay type: functional; conditions: DU-145, 48 h
MDA-MB-231 = test: Growth inhibition of human MDA-MB-231/ATCC cells incubated for 48 hrs by sulforhodamine B assay; assay type: functional; conditions: MDA-MB-231, 48 h
T47D = test: Growth inhibition of human T47D cells incubated for 48 hrs by sulforhodamine B assay; assay type: functional
CCRF-CEM [4] = test: Growth inhibition of human CCRF-CEM cells at 10^-5 M incubated for 48 hrs by sulforhodamine B assay relative to control; assay type: functional; conditions: read-out: GI
K562 = test: Growth inhibition of human K562 cells at 10^-5 M incubated for 48 hrs by sulforhodamine B assay relative to control; assay type: functional; conditions: K562, 48 h, read-out: GI
RPMI-8226 [5] = test: Growth inhibition of human RPMI8226 cells at 10^-5 M incubated for 48 hrs by sulforhodamine B assay relative to control; assay type: functional; conditions: RPMI-8226, 48 h, read-out: GI
SR [6] = test: Growth inhibition of human SR cells at 10^-5 M incubated for 48 hrs by sulforhodamine B assay relative to control; assay type: functional; conditions: read-out: GI
UO-31 = test: Growth inhibition of human UO31 cells at 10^-5 M incubated for 48 hrs by sulforhodamine B assay relative to control; assay type: functional; conditions: UO-31, 48 h, read-out: GI
MDA-MB-468 = test: Growth inhibition of human MDA-MB-468 cells at 10^-5 M incubated for 48 hrs by sulforhodamine B assay relative to control; assay type: functional; conditions: MDA-MB-468, 48 h, read-out: GI
[7] = tested on: Panel NCI-60 (60 carcinoma cell lines); test: Growth inhibition of human NCI60 cells at incubated for 48 hrs by sulforhodamine B assay; assay type: functional
C6 [8] = test: Antiproliferative activity against rat C6 cells assessed as decrease in cell viability measured after 48 hrs by MTT assay; assay type: functional, cell-based
C6 [9] = test: Cell cycle arrest in rat C6 cells assessed as increase in cell population at sub G0 phase measured after 24 hrs by propidium iodide staining based flow cytometry analysis; assay type: functional
Dihydrofolate reductase = target: T1, Dihydrofolate reductase (Homo sapiens, UniProt P00374); test: Inhibition of human dihydrofolate reductase using dihydrofolic acid as substrate preincubated for 1 hr in presence of NADPH followed by substrate addition by enzyme immunoassay
T1 sequence (P00374 whole entry): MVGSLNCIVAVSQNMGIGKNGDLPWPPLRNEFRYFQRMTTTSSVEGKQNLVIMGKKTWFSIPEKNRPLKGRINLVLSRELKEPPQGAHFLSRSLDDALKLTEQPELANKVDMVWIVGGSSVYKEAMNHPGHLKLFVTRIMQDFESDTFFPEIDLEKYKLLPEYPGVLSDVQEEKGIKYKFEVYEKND

[10] = target: T2, Dihydrofolate reductase (Homo sapiens) (UniProt P00374); test: Inhibition of human dihydrofolate reductase assessed as association constant by UV-Vis spectra based Benesi Hilebrand equation analysis
T2 sequence (whole entry): T1 sequence (P00374 whole entry)

C6 [11] = test: Cell cycle arrest in rat C6 cells assessed as cell population at G0/G1 phase measured after 24 hrs by propidium iodide staining based flow cytometry analysis; assay type: functional
[12] = target: T2, Dihydrofolate reductase (Homo sapiens); test: Binding affinity to human dihydrofolate reductase at 5 uM assessed as decrease in absorption band by UV-visible spectroscopic analysis
[13] = read-out: LC50 (the source's name)
[14] = read-out: pLC50 (the source's name) (converted)

With O=c1c2ccccc2n(CC2CO2)c2ccccc12 (racemic) the GI50 (CCRF-CEM [1]; read-out: GI50) was 70 nM, the CC50 (CCRF-CEM [1]; [13]) was greater than 100000 nM and the GI50 (CCRF-CEM [1]; read-out: pGI50 (converted)) was 76.9 nM. The CC50 (CCRF-CEM [1]; [14]) was greater than 100000 nM, the GI50 (RPMI-8226 [2]) was 302 nM and the CC50 (RPMI-8226 [2]; [14]) was greater than 100000 nM. It also gave a TGI (RPMI-8226 [2]; read-out: pTGI (converted)) of 1100 nM, a GI50 (SR [3]; read-out: GI50) of 50 nM and a CC50 (SR [3]; [13]) greater than 100000 nM. It also gave a GI50 (SR [3]; read-out: pGI50 (converted)) of 50.1 nM, a CC50 (SR [3]; [14]) greater than 100000 nM and a TGI (SR [3]; read-out: pTGI (converted)) of 1860 nM. It also gave a GI50 (HOP-62) of 380 nM, a CC50 (HOP-62; [14]) greater than 100000 nM and a TGI (HOP-62; read-out: pTGI (converted)) of 2750 nM. It also gave a GI50 (NCI-H23) of 295 nM, a CC50 (NCI-H23; [14]) of 57500 nM and a TGI (NCI-H23; read-out: pTGI (converted)) of 1290 nM. For the same molecule, the GI50 (NCI-H460) was 380 nM, the CC50 (NCI-H460; [14]) was greater than 100000 nM and the TGI (NCI-H460; read-out: pTGI (converted)) was 1660 nM. It also gave a GI50 (HCC 2998) of 275 nM, a CC50 (HCC 2998; [14]) of 10000 nM and a TGI (HCC 2998; read-out: pTGI (converted)) of 1020 nM. The GI50 (HCT-116) was 126 nM, the CC50 (HCT-116; [14]) was greater than 100000 nM and the TGI (HCT-116; read-out: pTGI (converted)) was 10000 nM. The GI50 (SNB-75) was 269 nM, the CC50 (SNB-75; [14]) was 6310 nM and the TGI (SNB-75; read-out: pTGI (converted)) was 1860 nM. It also gave a GI50 (M14) of 331 nM, a CC50 (M14; [14]) of 6170 nM and a TGI (M14; read-out: pTGI (converted)) of 1510 nM. The GI50 (OVCAR-3) was 288 nM, the CC50 (OVCAR-3; [14]) was greater than 100000 nM and the TGI (OVCAR-3; read-out: pTGI (converted)) was 1510 nM. The GI50 (OVCAR-5) was 513 nM, the CC50 (OVCAR-5; [14]) was 24000 nM and the TGI (OVCAR-5; read-out: pTGI (converted)) was 3630 nM. The GI50 (786-0) was 372 nM, the CC50 (786-0; [14]) was greater than 100000 nM and the TGI (786-0; read-out: pTGI (converted)) was 5250 nM. The GI50 (A498) was 1740 nM, the CC50 (A498; [14]) was 7240 nM and the TGI (A498; read-out: pTGI (converted)) was 3550 nM. It also gave a GI50 (RXF 393) of 214 nM, a CC50 (RXF 393; [14]) of 2290 nM and a TGI (RXF 393; read-out: pTGI (converted)) of 513 nM. For the same molecule, the GI50 (PC-3) was 331 nM, the CC50 (PC-3; [14]) was greater than 100000 nM and the TGI (PC-3; read-out: pTGI (converted)) was 4790 nM. It also gave a GI50 (DU-145) of 347 nM, a CC50 (DU-145; [14]) greater than 100000 nM and a TGI (DU-145; read-out: pTGI (converted)) of 1480 nM. The GI50 (MDA-MB-231) was 631 nM, the CC50 (MDA-MB-231; [14]) was greater than 100000 nM and the TGI (MDA-MB-231; read-out: pTGI (converted)) was 3310 nM. The GI50 (T47D) was 891 nM, the CC50 (T47D; [14]) was greater than 100000 nM and the TGI (T47D; read-out: pTGI (converted)) was 5500 nM. For the same molecule, the inhibition of growth at 10 µM (CCRF-CEM [4]) was 93%, the inhibition of growth at 10 µM (K562) was 92% and the inhibition of growth at 10 µM (RPMI-8226 [5]) was 100%. It also gave an inhibition of growth at 10 µM (SR [6]) of 91%, an inhibition of growth at 10 µM (UO-31) of 100% and an inhibition of growth at 10 µM (MDA-MB-468) of 100%. For the same molecule, the GI50 [7] was 1600 nM, the TGI [7] was 5600 nM and the CC50 [7, 13] was 44400 nM. For the same molecule, the inhibition (C6 [8]) was “Dose-dependent effect”, the IC50 (C6 [8]; C6, 48 h) was 250 to 1500 nM and the Activity (C6 [9]) was “Active”. For the same molecule, the IC50 (Dihydrofolate reductase) was 20 nM, the Ka [10] was 1.4 ×10⁴ /M and the Activity (C6 [11]) was “inactive”. For the same molecule, the Activity [12] was “Active”.
